# Data published in patent publication US11814366B2, “Antiviral compounds and use thereof” (UNIVERSITA DEGLI STUDI DI SIENA, priority 2018, dated 2023).
# Entries after “also recorded” stand apart in the source; their conditions may differ.
# Assays:
# in vitro = conditions: African green monkey
# HSV2 = experiment: Virucidal assay; format: cell-based, Herpes 2 virus (HSV-2); conditions: 10 μM, 2 h at 37° C., titrated at dilutions where compound no more active
# Description: Approximately 10^5 PFU of HSV2 plus 10 μM of 15b in DMSO were added to MEM and mixed in a total volume of 100 μl. The virus-compound mixtures were incubated for 2 h at 37° C. then diluted serially to the non-inhibitory concentration of test compound; the residual viral infectivity was determined by viral plaque assay (FIG. 2).
# HSV-2 [1] = experiment: Entry of virus into cell (ELISA, immunofluorescence); format: cell-based, Herpes 2 virus (HSV-2); conditions: 10 μM, HSV-2, Vero cells
# Description: Cells were plated in 96 well plates. The following day 10 μM of compound 15b in DMSO and HSV-2 (MOI 10 pfu/cell) were incubated for 1 h at 37° C. and subsequently added on cells for 1 hour at 4° C. Cells were then washed and shifted at 37° C. for 1 h and 30 minutes. Cells were then fixed with 4% paraformaldehyde, air dried and permeabilized with PBS-TRITON (0.5%) and then the same protocol described for binding was followed.
# Vero cells were pre-plated on coverslips and the following day the binding or entry protocol described above was applied. Cells were then fixed with 4% paraformaldehyde, air dried and for entry protocol permeabilized with PBS-TRITON. Blocking was performed with PBS-BSA1% for 1 h at room temperature and subsequently HSV-2 polyclonal antibody (B011402-2 Dako) (1:250) was added on cells, after 1 hour at 37° C. the inoculum was removed and coverslips were washed with PBS-TWEEN for 3 times. Rhodamine conjugated anti-rabbit IgG (Santa Cruz) was then added on cells for 1 h at 37° C. following 3 washes coverslips were mounted on microscope glasses and observed with Zeiss LSM510 fluorescence microscope (Zeiss, Oberkochen, Germany) and images were acquired (FIG. 3A, 3B).
# HSV-2 [2] = experiment: During infection assay, HSV-2 on Vero cells without preincubation; format: cell-based, Herpes 2 virus (HSV-2); conditions: Human alphaherpesvirus 2; HSV-2, Vero cells, no preincubation of compound and virus; read-out: EC50 in during infection (DI) assay
# Description: During infection cells were subjected to the same experiment described above for the evaluation of HSV inhibition without the preincubation between compounds and virus.
# HSV-2 [3] = experiment: Post treatment assay, HSV-2 infected Vero cells; format: cell-based, Herpes 2 virus (HSV-2); conditions: Human alphaherpesvirus 2, Vero, read-out: antiviral activity value when added post-infection
# Description: Supernatants and cells were harvested and cell free virus infectivity titers were determined in duplicate by plaque assay in Vero cell monolayers. Percent inhibition was determined by comparing the titer measured in the presence of the compounds to that measured in untreated wells.
# Cytotoxicity, XTT test = conditions: human
# HSV-2 [4] = experiment: Pretreatment assay, Vero cells treated before HSV-2; format: cell-based, Herpes 2 virus (HSV-2); conditions: Vero cells pretreated 2 h at 37° C., then HSV-2
# Description: Vero Cells were pretreated for 2 h at 37° C. with increasing concentrations of compound 15b in DMSO the inocula were then removed cells washed and HSV-2 was added on cells for 2 h at 37° C. Subsequently the same protocol described above for the evaluation of HSV inhibition was followed.
# VSV = experiment: microbe, parasite or virus in culture; format: cell-based, Vesicular Stomatitis Virus (VSV); conditions: Vesicular stomatitis virus, Vero
# RSV = RSV inhibition assay on Hep-2 cells; format: cell-based, RSV strain A2; conditions: human respiratory syncytial virus
# Description: Hep-2 cells were pre-plated in a 96-well plate. The following day concentrations of compounds ranging from 50 μM to 0.0001 μM in DMSO were mixed with RSV (MOI 0.005 pfu/cell) and incubated for 1 hour at 37° C. The mixtures were subsequently added to the cells, which were then incubated at 37° C. for 3 h; monolayers were then washed and overlaid with 1.2% methylcellulose medium. 72 hours later cells were fixed and subjected to specific immunostaining using an RSV monoclonal antibody (Ab35958; Abeam, Cambridge, United Kingdom) in order to visualize syncytia. EC50 were calculated by comparing numbers of syncytia in treated and untreated wells. The effective concentration producing 50% reduction in plaque formation (EC50) was determined using Prism software. The selectivity index (SI) was calculated by dividing the CC50 by the EC50 value.
# [5] = Cell viability (MTS) assay, HELF cells; format: cell-based; conditions: human, conditions of the HCMV assay
# Description: Cell viability was measured using the MITS [3-(4,5-dimethylthiazol-2-yl)-5-(3 carboxy methoxy phenyl)-2-(4-sulfophenyl)-2H-tetrazolium] assay. Cell cultures were seeded in 96-well plates and were incubated with different concentrations of compounds of the invention in triplicate under the same experimental conditions described for the antiviral assays. Cell viability was determined using the CellTiter 96 Proliferation Assay Kit (Promega, Madison, WI, USA) according to the manufacturer's instructions. Absorbances were measured using a Microplate Reader (Model 680, BIORAD) at 490 nm. The effect on cell viability at different concentrations of the compound was expressed as a percentage, by comparing absorbances of treated cells with those of cells incubated with culture medium and equal volumes of vehicle. The 50% cytotoxic concentrations (CC50) and 95% confidence intervals (CIs) were determined using Prism software (Graph-Pad Software, San Diego, CA).
# HSV-2 [6] = experiment: HSV-2 plaque reduction assay on Vero cells; format: cell-based, Herpes 2 virus (HSV-2)
# H1N1 = H1N1 inhibition assay on MDCK cells; format: cell-based, Influenza virus H1N1
# Description: MDCK cells were pre-plated in 96-well plates. The following day, concentrations of compounds ranging from 50 μM to 0.0001 μM in DMSO were mixed with H1N1 (MOI 0.05 pfu/cell) and incubated for 1 hour at 37° C. The mixtures were subsequently added to the cells for 1 h at 37° C., after a washout, cells were overlaid with MEM for 16 h at 37° C. Cells were then fixed and subjected to specific immunostaining using a Flu A monoclonal antibody (Merck 5001) in order to visualize infected cells. EC50 were calculated by comparing numbers of infected cells in treated and untreated wells. The effective concentration producing 50% reduction in plaque formation (EC50) was determined using Prism software. The selectivity index (SI) was calculated by dividing the CC50 by the EC50 value.
# HSV-2 Acy R = experiment: microbe, parasite or virus in culture; format: cell-based, HSV-2 acyclovir resistant; conditions: Human alphaherpesvirus 2, Vero
smiles,measurement,setting,value
"O=C1NC(=S)N(CCc2ccccc2)C(=O)/C1=C\c1ccc(-c2ccc(C(=O)O)c(O)c2)[nH]1 [Compound 15b, (Z)-4-(5-((4,6-dioxo-1-phenethyl-2-thioxotetrahydropyrimidin-5(2H)-ylidene)methyl)-1H-pyrrol-2-yl)-2-hydroxybenzoic Acid]",CC50,"in vitro; CC50, conditions of the HSV-1 assay",> 300000 nM
same,CC50,"in vitro; CC50, conditions of the HSV-2 Acy R assay",> 300000 nM
same,CC50,"in vitro; CC50, conditions of the HSV-2 assay (Table 2)",> 300000 nM
same,CC50,"in vitro; CC50, conditions of the ZIKAV assay (Table 3)",> 111000 nM
same,residual viral infectivity after virucidal incubation,HSV2,never regained
same,percentage of internalized virus,HSV-2 [1],decreased; also recorded: lower
same,EC50,HSV-2 [2],7890 nM
same,EC50,HSV-2 [3],775 nM
same,CC50,"Cytotoxicity, XTT test",> 20000 nM
same,antiviral activity in pre-treatment assay,HSV-2 [4],inactive
same,EC50,VSV,144 nM
same,EC90,VSV,2170 nM
same,EC50,RSV,315 nM
same,EC90,RSV,1510 nM
same,CC50,[5],36300 nM
same,SI selectivity index,"HSV-2 [6]; HSV-2, CC50 divided by EC50",>3452
same,EC90,"HSV-2 [6]; Human alphaherpesvirus 2, Vero, HSV-2 infected cells, 90% effective concentration",1190 nM
same,EC50,"HSV-2 [6]; Human alphaherpesvirus 2, Vero, HSV-2 infected cells, compound mixed with virus 1 hour at 37° C.",86.9 nM
same,SI selectivity index,"H1N1; H1N1, CC50 divided by EC50",>77
same,EC50,"H1N1; Influenza A virus, H1N1, MDCK",1240 nM
same,EC90,"H1N1; Influenza A virus, H1N1, MDCK",3880 nM
same,EC50,HSV-2 Acy R,83.4 nM
same,EC90,HSV-2 Acy R,420 nM
